Data published in BindingDB's records for doi:10.1038/sj.bjp.0702751 (Cerebrus, 1999).

Experiments:
[1] = target: 5-hydroxytryptamine receptor 2B (Homo sapiens, UniProt P41595)
[2] = target: T1, 5-hydroxytryptamine receptor 2C (Homo sapiens, UniProt P28335)
T1 sequence (P28335 whole entry): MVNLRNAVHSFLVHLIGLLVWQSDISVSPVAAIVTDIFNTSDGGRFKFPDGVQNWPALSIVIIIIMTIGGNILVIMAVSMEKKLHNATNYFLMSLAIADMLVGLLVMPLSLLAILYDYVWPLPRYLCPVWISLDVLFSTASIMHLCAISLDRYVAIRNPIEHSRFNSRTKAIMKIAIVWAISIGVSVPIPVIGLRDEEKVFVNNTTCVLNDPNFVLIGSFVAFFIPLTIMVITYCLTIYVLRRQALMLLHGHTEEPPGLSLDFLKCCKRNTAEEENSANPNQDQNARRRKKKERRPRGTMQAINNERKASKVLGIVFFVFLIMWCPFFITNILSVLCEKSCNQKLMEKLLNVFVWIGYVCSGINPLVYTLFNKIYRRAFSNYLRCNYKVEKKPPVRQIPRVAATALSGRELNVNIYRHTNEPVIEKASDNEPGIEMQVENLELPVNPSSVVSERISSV

Sequence of 5-hydroxytryptamine receptor 2B (P41595 whole entry): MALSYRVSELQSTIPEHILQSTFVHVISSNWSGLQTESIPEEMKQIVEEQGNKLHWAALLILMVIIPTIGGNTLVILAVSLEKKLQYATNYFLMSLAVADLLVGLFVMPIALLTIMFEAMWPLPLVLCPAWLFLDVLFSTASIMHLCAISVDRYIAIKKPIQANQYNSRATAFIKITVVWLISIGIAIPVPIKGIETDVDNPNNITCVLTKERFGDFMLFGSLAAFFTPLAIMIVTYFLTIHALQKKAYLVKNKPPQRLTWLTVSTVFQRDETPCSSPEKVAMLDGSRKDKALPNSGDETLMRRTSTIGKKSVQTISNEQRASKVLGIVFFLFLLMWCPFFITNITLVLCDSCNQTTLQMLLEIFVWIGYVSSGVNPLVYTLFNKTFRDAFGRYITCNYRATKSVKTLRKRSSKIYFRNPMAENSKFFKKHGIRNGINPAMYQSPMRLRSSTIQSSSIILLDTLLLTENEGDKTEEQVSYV

SMILES | Ki [1] | Ki [2]
FC(F)(F)c1cccc(N2CCNCC2)c1 [TFMPP] | 288 nM | 
CCCN(CCC)C1CCc2cccc(O)c2C1 (configuration not stated) | 891 nM | 
FC(F)(F)c1ccc(N2CCNCC2)nc1Cl [2-Chloro-3-(trifluoromethyl)-6-(1-piperazinyl)pyridine] | 525 nM | 97.7 nM
Cc1[nH]c2ccc(O)cc2c1CCN | 170 nM | 1200 nM
CC(N)Cc1c[nH]c2ccc(OCc3cccs3)cc12 (configuration not stated) [NSC_5311036] |  | 93.3 nM
CN1CCc2cc(Cl)c(O)cc2[C@@H](c2ccccc2)C1 [SCH 23390,R(+)] | 70.8 nM | 40.7 nM
CC(N)Cn1ccc2cc(F)c(Cl)cc21 (configuration not stated) [NSC_3045226] | 0.89 nM | 32.4 nM
COc1cc(CC(C)N)c(OC)cc1I (configuration not stated) [[125I]2,5-dimethoxy-4-iodoamphetamine] | 1.41 nM | 7.94 nM
c1ccc2nc(N3CCNCC3)ccc2c1 [2-Piperazin-1-yl-quinoline (Quipazine)] | 178 nM | 339 nM
COc1ccc2c(c1[C@@H]1CCNC1)CCC2 [ORG-37684] | 11 nM | 6.76 nM
NCCc1c[nH]c2ccccc12 [1H-indole-3-ethanamine] | 29.5 nM | 45.7 nM
C[C@H](N)Cc1cccc(C(F)(F)F)c1 [Norfenfluramine (+)] | 8.71 nM | 170 nM
COc1cc(CC(C)N)c(OC)cc1Br (stereo not drawn) [2-(4-Bromo-2,5-dimethoxy-phenyl)-1-methyl-ethylamine((-)-DOB)] | 2.88 nM | 
Cn1cc(CCN)c2cc(O)ccc21 [5-HT,omega-N-Me] | 2 nM | 11.5 nM
NCCc1c[nH]c2ccc(C(N)=O)cc12 [[3H]-5-carboxamidotryptamine] | 15.5 nM | 
Clc1cncc(N2CCNCC2)n1 [L-630,571] | 295 nM | 214 nM
